Consider 22 molecules from patent publication US10196390B2, “TYK2 inhibitors and uses thereof” (Nimbus Lakshmi, Inc., priority 2014, dated 2019).

Some results are limits rather than exact numbers.

One assay addresses TYK2 (Homo sapiens (Human), UniProt P29597). Briefly: Tyk2 activity inhibition assay (radioactive kinase assay / Caliper assay). The class given is biochemical. Here is the method:
Peptide substrate, [[…]], (20 μM) is prepared in reaction buffer (20 mM Hepes pH 7.5, 10 mM MgCl2, 1 mM EGTA, 0.02% Brij35, 0.02 mg/mL BSA, […], 2 mM DTT, 1% DMSO. TYK2 (Invitrogen) kinase is added, followed by compounds in DMSO. 33PATP is added to initiate the reaction in ATP at 10 μM. Kinase reaction is incubated for 120 min at room temp and reactions are spotted onto P81 ion exchange paper (Whatman #3698-915), and then washed extensively in 0.75% phosphoric acid, prior to reading the radioactivity counts. For JAK2 (Invitrogen) kinase assay the peptide substrate poly[Glu:Tyr](4:1), 0.2 mg/ml is used, in the reaction carried out the same as for TYK2.
The caliper machine employs an off chip mobility shift assay to detect phosphorylated peptide substrates from kinase assays, using microfluidics technology. The assays are carried out at ATP concentration equivalent to the ATP Km, and at 1 mM ATP. Compounds are serially diluted in DMSO then further diluted in assay buffer (25 mM HEPES, pH 7.5, 0.01% Brij-35, 0.01% Triton, 0.5 mM EGTA). 5 ul of diluted compound was added into wells first, then 10 ul of enzyme mix was added into wells, followed by 10 uL of substrate mix (peptide and ATP in 10 mM MgCl2) to start reaction. Reaction was incubated at 28° C. for 25 min and then added 25 ul stop buffer (100 mM HEPES, 0.015% Brij-35, 50 mM EDTA), followed by reading with Caliper. JAK2 at 1 nM final concentration and TYK2 at 9.75 nM are from Carna, and substrates used are ATP at 20 and 16 uM, respectively. JAK2 assay uses peptide 22 and TYK2 uses peptide 30 (Caliper), each at 3 uM.

For another assay, the target named is JAK2 (Homo sapiens (Human), UniProt O60674). As to the kind of experiment: JAK2 activity inhibition assay (radioactive kinase assay / Caliper assay). Type of assay: biochemical. The settings on record: read-out: JAK2 Ki. A digest of the protocol:
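Reaction ran 25 min at 28° C after adding peptide/ATP mix (10 mM MgCl2) to compound and enzyme in HEPES pH 7.5 buffer with Brij-35, Triton and EGTA. EDTA stop, then microfluidic off-chip separation quantified phosphorylated peptide.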

Sequence of TYK2 (P29597 whole entry): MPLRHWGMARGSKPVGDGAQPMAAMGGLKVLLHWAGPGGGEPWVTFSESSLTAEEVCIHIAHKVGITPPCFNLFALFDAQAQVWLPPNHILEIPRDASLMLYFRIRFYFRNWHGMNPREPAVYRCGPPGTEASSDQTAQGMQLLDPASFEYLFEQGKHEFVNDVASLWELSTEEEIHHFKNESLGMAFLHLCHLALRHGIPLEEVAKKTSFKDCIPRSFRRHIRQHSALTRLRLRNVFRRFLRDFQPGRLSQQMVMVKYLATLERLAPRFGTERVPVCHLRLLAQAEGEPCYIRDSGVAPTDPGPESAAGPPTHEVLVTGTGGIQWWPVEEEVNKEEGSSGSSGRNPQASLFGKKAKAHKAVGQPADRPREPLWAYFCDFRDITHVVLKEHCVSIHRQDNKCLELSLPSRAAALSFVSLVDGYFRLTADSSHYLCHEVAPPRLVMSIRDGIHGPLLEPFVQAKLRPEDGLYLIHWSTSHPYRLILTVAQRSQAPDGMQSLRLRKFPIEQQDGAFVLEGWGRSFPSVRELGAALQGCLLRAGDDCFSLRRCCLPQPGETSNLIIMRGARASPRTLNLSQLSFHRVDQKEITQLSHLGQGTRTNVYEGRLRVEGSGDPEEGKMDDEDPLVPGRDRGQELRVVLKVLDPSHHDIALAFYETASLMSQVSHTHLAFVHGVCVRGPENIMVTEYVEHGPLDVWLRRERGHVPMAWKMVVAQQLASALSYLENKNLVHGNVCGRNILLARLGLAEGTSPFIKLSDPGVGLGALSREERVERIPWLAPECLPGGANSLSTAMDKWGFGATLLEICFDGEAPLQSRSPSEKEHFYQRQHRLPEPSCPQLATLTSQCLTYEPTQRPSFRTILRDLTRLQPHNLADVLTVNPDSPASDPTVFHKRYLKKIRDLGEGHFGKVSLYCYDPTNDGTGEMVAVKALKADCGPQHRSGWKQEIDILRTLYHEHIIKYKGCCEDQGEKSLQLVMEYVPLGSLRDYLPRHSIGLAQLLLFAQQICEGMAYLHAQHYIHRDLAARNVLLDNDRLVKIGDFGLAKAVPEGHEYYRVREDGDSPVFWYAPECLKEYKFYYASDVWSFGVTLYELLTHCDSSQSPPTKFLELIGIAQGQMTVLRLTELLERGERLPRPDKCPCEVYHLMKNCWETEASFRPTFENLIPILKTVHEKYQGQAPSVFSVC
Sequence of JAK2 (O60674 whole entry): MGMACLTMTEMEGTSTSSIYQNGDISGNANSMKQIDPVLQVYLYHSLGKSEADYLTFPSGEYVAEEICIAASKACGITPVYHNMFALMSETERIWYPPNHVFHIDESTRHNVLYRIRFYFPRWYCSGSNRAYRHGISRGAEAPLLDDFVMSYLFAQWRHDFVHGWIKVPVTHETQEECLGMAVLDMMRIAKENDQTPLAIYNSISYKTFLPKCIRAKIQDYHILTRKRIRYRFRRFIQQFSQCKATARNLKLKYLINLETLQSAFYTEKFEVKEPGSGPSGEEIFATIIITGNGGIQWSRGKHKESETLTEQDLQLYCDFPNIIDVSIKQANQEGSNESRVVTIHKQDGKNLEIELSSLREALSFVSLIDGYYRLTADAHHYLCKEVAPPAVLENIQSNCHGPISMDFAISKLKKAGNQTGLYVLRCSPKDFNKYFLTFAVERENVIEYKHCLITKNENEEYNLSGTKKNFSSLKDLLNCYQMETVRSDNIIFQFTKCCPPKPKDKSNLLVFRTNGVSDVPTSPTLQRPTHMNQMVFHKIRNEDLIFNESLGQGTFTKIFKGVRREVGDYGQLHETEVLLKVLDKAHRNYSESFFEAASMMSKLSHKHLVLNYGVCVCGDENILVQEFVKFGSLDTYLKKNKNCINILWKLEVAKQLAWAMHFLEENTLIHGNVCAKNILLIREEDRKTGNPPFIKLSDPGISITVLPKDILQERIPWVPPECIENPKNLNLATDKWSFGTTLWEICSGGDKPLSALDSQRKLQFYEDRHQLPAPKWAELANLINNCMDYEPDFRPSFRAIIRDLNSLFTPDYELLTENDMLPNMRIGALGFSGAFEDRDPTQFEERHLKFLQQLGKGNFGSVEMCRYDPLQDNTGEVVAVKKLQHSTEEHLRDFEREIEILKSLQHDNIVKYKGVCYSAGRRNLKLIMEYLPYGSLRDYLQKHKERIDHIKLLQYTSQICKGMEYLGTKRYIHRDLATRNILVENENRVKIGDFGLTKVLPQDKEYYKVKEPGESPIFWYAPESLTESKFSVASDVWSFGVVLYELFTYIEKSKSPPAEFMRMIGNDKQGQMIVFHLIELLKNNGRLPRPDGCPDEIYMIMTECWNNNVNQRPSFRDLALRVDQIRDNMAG

As for `O=C1NCc2nc(-c3c(F)cccc3F)cc(Nc3ccc([C@H]4CCNC4=O)cn3)c21` [Compound I-91, (R)-2-(2,6-difluorophenyl)-4-((5-(2-oxopyrrolidin-3-yl)pyridin-2-yl)amino)-6,7-dihydro-5H-pyrrolo[3,4-b]pyridin-5-one], the Ki – broadly, the equilibrium dissociation constant of an inhibitor or competing ligand from its target – on TYK2 is less than 0.01 µM; on JAK2 it was 0.01 to 0.1 µM.
For `O=C1NCc2nc(-c3c(F)cccc3F)cc(Nc3ccc([C@@H]4CCNC4=O)cn3)c21` [Compound I-92, (S)-2-(2,6-difluorophenyl)-4-((5-(2-oxopyrrolidin-3-yl)pyridin-2-yl)amino)-6,7-dihydro-5H-pyrrolo[3,4-b]pyridin-5-one], in that order: less than 0.01 µM and 0.01 to 0.1 µM.
On to `COC(=O)[C@@H]1COCCN1C(=O)Cc1ccc(Nc2nc(-c3c(F)cccc3F)nc3c2C(=O)NC3)cc1` [Compound I-111, methyl (S)-4-(2-(4-((2-(2,6-difluorophenyl)-5-oxo-6,7-dihydro-5H-pyrrolo[3,4-d]pyrimidin-4-yl)amino)phenyl)acetyl)morpholine-3-carboxylate], for which the Ki was 0.01 to 0.1 µM on TYK2 and 0.1 to 1 µM on JAK2.
Turning to `O=C1NCc2nc(-c3c(F)cccc3F)nc(Nc3ccc(CC(=O)N4CCOC[C@H]4C(=O)O)cc3)c21` [Compound I-112, (S)-4-(2-(4-((2-(2,6-difluorophenyl)-5-oxo-6,7-dihydro-5H-pyrrolo[3,4-d]pyrimidin-4-yl)amino)phenyl)acetyl)morpholine-3-carboxylic Acid], the Ki at TYK2 is less than 0.01 µM; on JAK2 it was 0.1 to 1 µM.
For `O=C1NCc2nc(-c3c(F)cccc3Cl)nc(Nc3ccc(C4CCNC4=O)cc3)c21` (centres unmarked) [Compound I-113, 2-(2-chloro-6-fluorophenyl)-4-((4-(2-oxopyrrolidin-3-yl)phenyl)-amino)-6,7-dihydro-5H-pyrrolo[3,4-d]pyrimidin-5-one], in that order: less than 0.01 µM and 0.1 to 1 µM.
For `COCCC1(c2ccc(Nc3nc(-c4c(F)cccc4F)nc4c3C(=O)NC4)cc2)CCNC1=O` (centres unmarked) [Compound I-116, 2-(2,6-difluorophenyl)-4-((4-(3-(2-methoxyethyl)-2-oxopyrrolidin-3-yl)phenyl)amino)-6,7-dihydro-5H-pyrrolo[3,4-d]pyrimidin-5-one] the same measures were less than 0.01 µM and 0.01 to 0.1 µM.
On to `O=C1NCc2nc(-c3c(F)cccc3F)nc(Nc3ccc([C@H]4CCN(C5CCC5)C4=O)cc3)c21` [Compound I-118, (R)-4-((4-(1-cyclobutyl-2-oxopyrrolidin-3-yl)phenyl)amino)-2-(2,6-difluorophenyl)-6,7-dihydro-5H-pyrrolo[3,4-d]pyrimidin-5-one], for which the Ki at TYK2 is less than 0.01 µM; at JAK2 it was 0.1 to 1 µM.
For `O=C1NCc2nc(-c3c(F)cccc3F)nc(Nc3ccc([C@@H]4CCN(C5CCC5)C4=O)cc3)c21` [Compound I-119, (S)-4-((4-(1-cyclobutyl-2-oxopyrrolidin-3-yl)phenyl)amino)-2-(2,6-difluorophenyl)-6,7-dihydro-5H-pyrrolo[3,4-d]pyrimidin-5-one] the same measures were less than 0.01 µM and 0.1 to 1 µM.
For `CCNC(=O)C(C)(C)c1ccc(Nc2nc(-c3c(F)cccc3F)nc3c2C(=O)NC3)cc1` [Compound I-120, 2-(4-((2-(2,6-difluorophenyl)-5-oxo-6,7-dihydro-5H-pyrrolo[3,4-d]pyrimidin-4-yl)amino)phenyl)-N-ethyl-2-methylpropanamide] the same measures were less than 0.01 µM and 0.1 to 1 µM.
As to `O=C1NCc2nc(-c3c(F)cccc3F)nc(Nc3ccc(C4CCN(CCN5CCOCC5)C4=O)cc3)c21` (centres unmarked) [Compound I-121, 2-(2,6-difluorophenyl)-4-((4-(1-(2-morpholinoethyl)-2-oxopyrrolidin-3-yl)phenyl)amino)-6,7-dihydro-5H-pyrrolo[3,4-d]pyrimidin-5-one], the values for the Ki at TYK2 and at JAK2 were less than 0.01 µM and 0.1 to 1 µM, respectively.
Take `O=C1NCc2nc(-c3c(F)cccc3F)nc(Nc3ccc([C@H]4CCN(CCN5CCOCC5)C4=O)cc3)c21` [Compound I-122, (R)-2-(2,6-difluorophenyl)-4-((4-(1-(2-morpholinoethyl)-2-oxopyrrolidin-3-yl)phenyl)amino)-6,7-dihydro-5H-pyrrolo[3,4-d]pyrimidin-5-one]: the Ki is less than 0.01 µM on TYK2 and 0.1 to 1 µM on JAK2.
For the molecule `O=C1NCc2nc(-c3c(F)cccc3F)nc(Nc3ccc([C@@H]4CCN(CCN5CCOCC5)C4=O)cc3)c21` [Compound I-123, (S)-2-(2,6-difluorophenyl)-4-((4-(1-(2-morpholinoethyl)-2-oxopyrrolidin-3-yl)phenyl)amino)-6,7-dihydro-5H-pyrrolo[3,4-d]pyrimidin-5-one], the Ki is less than 0.01 µM at TYK2 and 0.1 to 1 µM at JAK2.
For `CC1(c2ccc(Nc3nc(-c4c(F)cccc4F)nc4c3C(=O)NC4)cc2)CCN(C2CCOCC2)C1=O` (centres unmarked) [Compound I-124, 2-(2,6-difluorophenyl)-4-((4-(3-methyl-2-oxo-1-(tetrahydro-2H-pyran-4-yl)pyrrolidin-3-yl)phenyl)amino)-6,7-dihydro-5H-pyrrolo[3,4-d]pyrimidin-5-one] the same measures were less than 0.01 µM and 0.01 to 0.1 µM.
In the case of `C[C@@]1(c2ccc(Nc3nc(-c4c(F)cccc4F)nc4c3C(=O)NC4)cc2)CCN(C2CCOCC2)C1=O` [Compound I-125, (S)-2-(2,6-difluorophenyl)-4-((4-(3-methyl-2-oxo-1-(tetrahydro-2H-pyran-4-yl)pyrrolidin-3-yl)phenyl)amino)-6,7-dihydro-5H-pyrrolo[3,4-d]pyrimidin-5-one], the Ki at TYK2 is less than 0.01 µM; at JAK2 it was 0.01 to 0.1 µM.
As to `C[C@]1(c2ccc(Nc3nc(-c4c(F)cccc4F)nc4c3C(=O)NC4)cc2)CCN(C2CCOCC2)C1=O` [Compound I-126, (R)-2-(2,6-difluorophenyl)-4-((4-(3-methyl-2-oxo-1-(tetrahydro-2H-pyran-4-yl)pyrrolidin-3-yl)phenyl)amino)-6,7-dihydro-5H-pyrrolo[3,4-d]pyrimidin-5-one], the Ki is less than 0.01 µM on TYK2 and 0.01 to 0.1 µM at JAK2.
For `O=C(NCCN1CCOCC1)c1ccc(Nc2nc(-c3c(F)cccc3F)nc3c2C(=O)NC3)cc1` [Compound I-127, 4-((2-(2,6-difluorophenyl)-5-oxo-6,7-dihydro-5H-pyrrolo[3,4-d]pyrimidin-4-yl)amino)-N-(2-morpholinoethyl)benzamide], in that order: less than 0.01 µM and 0.01 to 0.1 µM.
For `COC(=O)[C@H]1C[C@H](Nc2nc(-c3c(F)cccc3F)nc3c2C(=O)NC3)C1` [Compound I-129, methyl (1r,3r)-3-((2-(2,6-difluorophenyl)-5-oxo-6,7-dihydro-5H-pyrrolo[3,4-d]pyrimidin-4-yl)amino)cyclobutane-1-carboxylate], in that order: greater than 1 µM and greater than 1 µM.
For `O=C1NCc2nc(-c3c(F)cccc3F)nc(N[C@H]3C[C@H](C(=O)O)C3)c21` [Compound I-130, (1r,3r)-3-((2-(2,6-difluorophenyl)-5-oxo-6,7-dihydro-5H-pyrrolo[3,4-d]pyrimidin-4-yl)amino)cyclobutane-1-carboxylic Acid], in that order: greater than 1 µM and greater than 1 µM.
On to `CCNC(=O)[C@H]1C[C@H](Nc2nc(-c3c(F)cccc3F)nc3c2C(=O)NC3)C1` [Compound I-131, (1r,3r)-3-((2-(2,6-difluorophenyl)-5-oxo-6,7-dihydro-5H-pyrrolo[3,4-d]pyrimidin-4-yl)amino)-N-ethylcyclobutane-1-carboxamide], for which the Ki at TYK2 and on JAK2 was greater than 1 µM each time.
As to `COC(=O)Cc1ccc(Nc2cc(-c3c(F)cccc3F)nc3c2C(=O)NC3)nc1` [Compound I-132, methyl 2-(6-((2-(2,6-difluorophenyl)-5-oxo-6,7-dihydro-5H-pyrrolo[3,4-b]pyridin-4-yl)amino)pyridin-3-yl)acetate], the Ki on TYK2 was less than 0.01 µM; on JAK2, 0.01 to 0.1 µM.
For `O=C1NCc2nc(-c3c(F)cccc3F)cc(Nc3ccc(C4CCNC4=O)cn3)c21` (centres unmarked) [Compound I-133, 2-(2,6-difluorophenyl)-4-((5-(2-oxopyrrolidin-3-yl)pyridin-2-yl)amino)-6,7-dihydro-5H-pyrrolo[3,4-b]pyridin-5-one], in that order: less than 0.01 µM and 0.01 to 0.1 µM.
For `O=C1NCc2nc(-c3c(F)cccc3F)cc(Nc3ccc(OCCN4CCC4)cn3)c21` [Compound I-134, 4-((5-(2-(azetidin-1-yl)ethoxy)pyridin-2-yl)amino)-2-(2,6-difluorophenyl)-6,7-dihydro-5H-pyrrolo[3,4-b]pyridin-5-one], in that order: less than 0.01 µM and 0.01 to 0.1 µM.
